Consider 44 compounds from patent US7879838B2, “Heteroaryl substituted pyrazinyl-piperazine-piperidines with CXCR3 antagonist activity” (Schering Corporation, priority 2005, dated 2011).

This assay deals with T1, Human CXCR3 (N-delta 4) (Homo sapiens, UniProt P49682).
T1 construct: CD8 leader (N); Flag tag; expressed in transfected cells; membranes prepared
T1 sequence (P49682 5-368 limits assumed): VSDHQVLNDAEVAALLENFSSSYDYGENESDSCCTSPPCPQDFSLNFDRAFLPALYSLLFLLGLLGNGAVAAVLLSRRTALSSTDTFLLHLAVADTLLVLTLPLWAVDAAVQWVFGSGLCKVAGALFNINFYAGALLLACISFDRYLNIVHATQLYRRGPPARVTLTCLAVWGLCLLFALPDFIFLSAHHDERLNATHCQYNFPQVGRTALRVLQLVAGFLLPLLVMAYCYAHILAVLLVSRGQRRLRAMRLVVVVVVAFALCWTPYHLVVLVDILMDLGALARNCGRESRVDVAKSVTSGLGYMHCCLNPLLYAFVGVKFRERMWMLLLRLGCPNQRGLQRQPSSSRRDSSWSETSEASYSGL
The experiment in a line: Human CXCR3 (N-delta 4) scintillation proximity assay (SPA), [125I] IP-10 binding to Ba/F3-hCXCR3 membranes. The conditions noted are these: IC50 rating; 25 pM [125I] IP-10, membranes of Ba/F3 cells expressing human CXCR3 (N-delta 4). The source says:
The inventive compounds can readily be evaluated to determine activity at The CXCR3 receptors by known methods, such as, for example, Development of Human CXCR3 (N-delta 4) Binding Assay.
Cloning and Expression of Human CXCR3 (N-delta 4):
The DNA encoding human CXCR3 was cloned by PCR using human genomic DNA (Promega, Madison, Wis.) as a template. The PCR primers were designed based on the published sequence of human orphan receptor GPR9 (1) with incorporated restriction sites, a Kozak consensus sequence, CD8 leader and Flag tag. The PCR product was subcloned into the mammalian expression vector pME18Sneo, a derivative of the SR-alpha expression vector (designated as pME18Sneo-hCXCR3 (N-delta 4).
IL-3-dependent mouse pro-B cells Ba/F3 were transfected by electroporation in 0.4 ml Dulbecco's PBS containing 4×10^6 cells with 20 μg of pME18Sneo-hCXCR3 (N-delta 4) plasmid DNA. Cells were pulsed at 400 Volts, 100 OHMs, 960 μFd. The transfected cells were under selection with 1 mg/ml G418 (Life Technologies, Gaithersburg, Md.). G418-resistant Ba/F3 clones were screened for CXCR3 expression by specific binding of [^125I] IP-10 (NEN Life Science Products, Boston, Mass.).
Preparation of Ba/F3-hCXCR3 (N-delta 4) Membranes
Ba/F3 cells expressing human CXCR3 (N-delta 4) were pelleted and resuspended in the lysis buffer containing 10 mM HEPES, pH 7.5 and Complete® protease inhibitors (1 tablet per 100 ml) (Boehringer Mannheim, Indianapolis, Ind.) at a cell density of 20×10^6 cells per ml. After 5 minutes incubation on ice, cells were transferred to 4639 cell disruption bomb (Parr Instrument, Moline, Ill.) and applied with 1,500 psi of nitrogen for 30 minutes on ice. Large cellular debris was removed by centrifugation at 1,000×g. Cell membrane in the supernatant was sedimented at 100,000×g. The membrane was resuspended in the lysis buffer supplemented with 10% sucrose and stored at −80° C. Total protein concentration of the membrane was determined by BCA method from Pierce (Rockford, Ill.).
Human CXCR3 (N-delta 4) Scintillation Proximity Assay (SPA)
For each assay point, 2 μg of membrane was preincubated for 1 hr with 300 μg wheat germ agglutinin (WGA) coated SPA beads (Amersham, Arlington Heights, Ill.) in the binding buffer (50 mM HEPES, 1 mM CaCl2, 5 mM MgCl2, 125 mM NaCl, 0.002% NaN3, 1.0% BSA) at room temperature. The beads were spun down, washed once, resuspended in the binding buffer and transferred to a 96-well Isoplate (Wallac, Gaithersburg, Md.). 25 pM of [^125I] IP-10 with tested compounds in a series of titration were added to start the reaction. After 3 hr reaction at room temperature, the amount of [^125I] IP-10 bound to the SPA beads was determined with a Wallac 1450 Microbeta counter.
The Ki values for the various example compounds of the present invention are given in the afore-mentioned Table 1. From these values, it would be apparent to the skilled artisan that the compounds of the invention have excellent utility CXCR3 antagonists.

Some results are limits rather than exact numbers.

On to `CC[C@H]1CN(c2nc(N)c(C(=O)NC)nc2Cl)CCN1C1CCN(C(=O)c2ccc(Cl)nc2Cl)CC1` [compound 43], for which the IC50 was less than 25 nM.
In turn, `CC[C@H]1CN(c2nc(N)c(C(=O)NC)nc2Cl)CCN1C1CCN(C(=O)c2ccc(Cl)nc2)CC1` [compound 44] showed an IC50 of less than 25 nM.
For `CC[C@H]1CN(c2nc(N)c(C(=O)NC)nc2Cl)CCN1C1CCN(C(=O)c2cc(F)c(Cl)nc2Cl)CC1` [compound 45] the value was less than 25 nM.
The value for `CCNC(=O)NCc1nc(Cl)c(N2CCN(C3CCN(C(=O)c4ccc(Cl)nc4N)CC3)[C@@H](CC)C2)nc1N` [compound 47] was less than 25 nM; that for `CC[C@H]1CN(c2nc(N)c(C(N)=O)nc2Cl)CCN1C1CCN(Cc2ccc(Cl)nc2)CC1` [compound 49] was 25 to 100 nM.
The value for `CC[C@H]1CN(c2nc(N)c(C(=O)NCCNS(C)(=O)=O)nc2Cl)CCN1C1CCN(C(=O)c2ccc(Cl)nc2N)CC1` [compound 50] was 25 to 100 nM; that for `CC[C@H]1CN(c2nc(N)c(C(=O)NC3CCOC3)nc2Cl)CCN1C1CCN(C(=O)c2ccc(Cl)nc2N)CC1` (some centres unmarked) [compound 51] was 25 to 100 nM.
`CC[C@H]1CN(c2nc(N)c(C(=O)NCCN3CCCC3)nc2Cl)CCN1C1CCN(C(=O)c2ccc(Cl)nc2N)CC1` [compound 52] registered an IC50 of 25 to 100 nM.
`CC[C@H]1CN(c2nc(N)c(C(=O)NCCS(C)(=O)=O)nc2Cl)CCN1C1CCN(Cc2ccc(Cl)nc2N)CC1` [compound 53] came in with an IC50 of 25 to 100 nM.
For `CC[C@H]1CN(c2nc(N)c(C(=O)NC3CCS(=O)(=O)C3)nc2Cl)CCN1C1CCN(C(=O)c2ccc(Cl)nc2N)CC1` (some centres unmarked) [compound 54] the value was 25 to 100 nM; for `CC[C@H]1CN(c2nc(N)c(C(=O)NC3CCOC3=O)nc2Cl)CCN1C1CCN(C(=O)c2ccc(Cl)nc2N)CC1` (some centres unmarked) [compound 55], 25 to 100 nM.
For `CC[C@H]1CN(c2nc(N)c(C(N)=O)nc2Cl)CCN1C1CCN(C(=O)c2cc(F)c(Cl)nc2Cl)CC1` [compound 56], the IC50 was 25 to 100 nM.
For `CC[C@H]1CN(c2nc(N)c(C(=O)NCc3ccco3)nc2Cl)CCN1C1CCN(C(=O)c2ccc(Cl)nc2N)CC1` [compound 57] the value was 25 to 100 nM; for `CC[C@H]1CN(c2nc(NCc3ccc(F)c(F)c3)c(C(=O)OC)nc2Cl)CCN1C1CCN(C(=O)c2ccc(Cl)nc2N)CC1` [compound 60], 25 to 100 nM.
`CC[C@H]1CN(c2nc(N)c(C(=O)NC3COCC3O)nc2Cl)CCN1C1CCN(C(=O)c2ccc(Cl)nc2N)CC1` (some centres unmarked) [compound 61]: the IC50 is 25 to 100 nM.
`CC[C@H]1CN(c2nc(N)c(C(=O)NCc3cccs3)nc2Cl)CCN1C1CCN(C(=O)c2ccc(Cl)nc2N)CC1` [compound 62] gave an IC50 of 25 to 100 nM.
As to `CC[C@H]1CN(c2nc(N)c(C(=O)NCCO)nc2Cl)CCN1C1CCN(C(=O)c2ccc(C(F)(F)F)nc2N)CC1` [compound 63], the IC50 lay within 25 to 100 nM.
For `CC[C@H]1CN(c2nc(N)c(C(=O)NCCN(C)C)nc2Cl)CCN1C1CCN(C(=O)c2ccc(Cl)nc2N)CC1` [compound 64] the value was 25 to 100 nM; for `CC[C@H]1CN(c2nc(N)c(C(=O)NN)nc2Cl)CCN1C1CCN(C(=O)c2ccc(Cl)nc2N)CC1` [compound 65], 25 to 100 nM.
As for `CC[C@H]1CN(c2nc(N)c(C(=O)NCCO)nc2Cl)CCN1C1CCN(Cc2ccc(Cl)nc2N2CCOCC2)CC1` [compound 66], the IC50 fell in the range of 25 to 100 nM.
Take `CC[C@H]1CN(c2nc(N)c(C(=O)NCCS(C)(=O)=O)nc2Cl)CCN1C1CCN(C(=O)c2ccc(Cl)nc2N)CC1` [compound 67]: the IC50 lay within 25 to 100 nM.
For `CC[C@H]1CN(c2nc(N)c(C(=O)NCCO)nc2Cl)CCN1C1CCN(C(=O)c2ccc(C(F)(F)F)nc2Cl)CC1` [compound 68], the IC50 was 25 to 100 nM.
The value for `CC[C@H]1CN(c2nc(N)c(C(=O)NN)nc2Cl)CCN1C1CCN(C(=O)c2ccc(-n3cccc3)nc2)CC1` [compound 69] was 25 to 100 nM.
As to `CC[C@H]1CN(c2nc(N)c(C(=O)NCCO)nc2Cl)CCN1C1CCN(Cc2ccc(C(F)(F)F)nc2)CC1` [compound 70], the IC50 lay within 25 to 100 nM.
For `CC[C@H]1CN(c2nc(N)c(C(=O)NN)nc2Cl)CCN1C1CCN(C(=O)c2cnc(Cl)c(Cl)c2)CC1` [compound 71] the value was 25 to 100 nM.
The compound `CC[C@H]1CN(c2nc(N)c(C(=O)NCCO)nc2Cl)CCN1C1CCN(Cc2ccc(C#N)nc2)CC1` [compound 72] registered an IC50 of more than 100 nM.
For `CC[C@H]1CN(c2nc(N)c(C(=O)NN)nc2Cl)CCN1C1CCN(C(=O)c2cc(F)c(N)nc2Cl)CC1` [compound 73] the value was more than 100 nM.
As for `CC[C@H]1CN(c2nc(N)c(C(=O)NC3CC3)nc2Cl)CCN1C1CCN(Cc2cc(C)nn2C)CC1` [compound 74], the IC50 was more than 100 nM.
The value for `CC[C@H]1CN(c2nc(N)c(C(N)=O)nc2Cl)CCN1C1CCN(Cc2ccc(Cl)n3ccnc23)CC1` [compound 75] was more than 100 nM; that for `CCOC(=O)C1(NC(=O)c2nc(Cl)c(N3CCN(C4CCN(C(=O)c5ccc(Cl)nc5N)CC4)[C@@H](CC)C3)nc2N)CC1` [compound 76] was more than 100 nM; that for `CC[C@H]1CN(c2nc(NC(=O)N(C)C)c(C(=O)NC)nc2Cl)CCN1C1CCN(C(=O)c2ccc(Cl)nc2N)CC1` [compound 77] was more than 100 nM.
The value for `CC[C@H]1CN(c2nc(N)c(C(=O)NC3CC3)nc2Cl)CCN1C1CCN(C(=O)c2cc(F)c(N)nc2Cl)CC1` [compound 78] was more than 100 nM; that for `CC[C@H]1CN(c2nc(N)c(C(=O)NCCO)nc2Cl)CCN1C1CCN(C(=O)c2cnc(Cl)nc2C(F)(F)F)CC1` [compound 79] was more than 100 nM; that for `CCOC(=O)NCc1nc(Cl)c(N2CCN(C3CCN(C(=O)c4ccc(Cl)nc4N)CC3)[C@@H](CC)C2)nc1N` [compound 80] was more than 100 nM.
The compound `CC[C@H]1CN(c2nc(N)c(C(=O)NC3CC3)nc2Cl)CCN1C1CCN(Cc2c(C)nn(C)c2C)CC1` [compound 81] had an IC50 of more than 100 nM.
For `CC[C@H]1CN(c2nc(N)c(C(=O)NCC(C)(C)O)nc2Cl)CCN1C1CCN(C(=O)c2ccc(Cl)nc2N)CC1` [compound 82] the value was more than 100 nM; for `CC[C@H]1CN(c2nc(N)c(C(=O)Nc3nccc(=O)[nH]3)nc2Cl)CCN1C1CCN(C(=O)c2ccc(Cl)nc2N)CC1` [compound 83], more than 100 nM; for `CC[C@H]1CN(c2nc(NCC3CC3)c(C(N)=O)nc2Cl)CCN1C1CCN(C(=O)c2ccc(Cl)nc2N)CC1` [compound 84], more than 100 nM.
Regarding `CC[C@H]1CN(c2nc(N)c(C(=O)NCCO)nc2Cl)CCN1C1CCN(Cc2ccc(Cl)nn2)CC1` [compound 85], the IC50 was more than 100 nM.
The value for `CC[C@H]1CN(c2nc(N)c(C(=O)NNC(=O)C3CC3)nc2Cl)CCN1C1CCN(C(=O)c2ccc(Cl)nc2N)CC1` [compound 86] was more than 100 nM; that for `CC[C@H]1CN(c2nc(N)c(C(=O)N3CC(O)C3)nc2Cl)CCN1C1CCN(C(=O)c2ccc(Cl)nc2N)CC1` [compound 87] was more than 100 nM.
The value for `CC[C@H]1CN(c2nc(N)c(C(N)=O)nc2Cl)CCN1C1CCN(C(=O)c2ccc(-n3cccc3)nc2)CC1` [compound 88] was more than 100 nM; that for `CC[C@H]1CN(c2nc(N)c(C(=O)Nc3ncccc3O)nc2Cl)CCN1C1CCN(C(=O)c2ccc(Cl)nc2N)CC1` [compound 89] was more than 100 nM.
In the case of `CC[C@H]1CN(c2nc(N)c(C(=O)N/C(N)=N/C#N)nc2Cl)CCN1C1CCN(C(=O)c2ccc(Cl)nc2N)CC1` [compound 90], the IC50 was more than 100 nM.
